Results published in patent US6440903B1, “Substituted 2,4-diamino-1,3,5-triazines as herbicides” (Bayer Aktiengesellschaft, priority 1996, dated 2002).

Legend:
Format in all cases: in vivo
[1] = tested on: Viola; assay: Post-emergence test; conditions: greenhouse, scored after three weeks; for pest or weed control at 500 g/ha: 500 g of ai./ha
Procedure: (§1) Post-emergence Test Solvent: 5 parts by weight of acetone Emulsifier: 1 part by weight of alkylaryl polyglycol ether To produce a suitable preparation of active compound, 1 part by weight of active compound is mixed with the stated amount of solvent, the stated amount of emulsifier is added and the concentrate is diluted with water to the desired concentration. Test plants which have a height of 5-15 cm are sprayed with the preparation of active compound such that the particular amounts of active compounds desired are applied per unit area. The concentration of the spray liquor is chosen so that the particular amounts of active compound desired are applied in 1000 l of water/ha. After three weeks, the degree of damage to the plants is scored visually in % damage in comparison to the untreated control. The Figures Denote: 0%=no effect (like untreated control) 100%=total destruction

[2] = tested on: Setaria; assay: Post-emergence test; conditions: greenhouse, scored after three weeks; for pest or weed control at 500 g/ha: 500 g of ai./ha
Procedure: as §1

[3] = tested on: Polygonum; assay: Post-emergence test; conditions: greenhouse, scored after three weeks; for pest or weed control at 500 g/ha: 500 g of ai./ha
Procedure: as §1

[4] = tested on: Chenopodium; assay: Post-emergence test; conditions: greenhouse, scored after three weeks; for pest or weed control at 500 g/ha: 500 g of ai./ha
Procedure: as §1

[5] = tested on: Wheat; assay: Post-emergence test; conditions: greenhouse, scored after three weeks; for plant injury at 500 g/ha: 500 g of ai./ha; for % damage, Wheat / plant injury at 250 g/ha: 250 g of ai./ha
Procedure: as §1

[6] = tested on: Amaranthus; assay: Post-emergence test; conditions: greenhouse, scored after three weeks; for pest or weed control at 500 g/ha: 500 g of ai./ha
Procedure: as §1

[7] = tested on: weeds; assay: Post-emergence test (summary in text); conditions: result in words
Procedure: Solvent: 5 parts by weight of acetone
Emulsifier: 1 part by weight of alkylaryl polyglycol ether
To produce a suitable preparation of active compound, 1 part by weight of active compound is mixed with the stated amount of solvent, the stated amount of emulsifier is added and the concentrate is diluted with water to the desired concentration.
Test plants which have a height of 5-15 cm are sprayed with the preparation of active compound such that the particular amounts of active compounds desired are applied per unit area. The concentration of the spray liquor is chosen so that the particular amounts of active compound desired are applied in 1000 l of water/ha.
After three weeks, the degree of damage to the plants is scored visually in % damage in comparison to the untreated control.
0%=no effect (like untreated control)

[8] = 504 h, read-out: % damage, Viola
[9] = Setaria, 504 h, read-out: % damage, Setaria
[10] = Polygonum, 504 h, read-out: % damage, Polygonum
[11] = Chenopodium, 504 h, read-out: % damage, Chenopodium
[12] = Triticum aestivum, 504 h, read-out: % damage, Wheat
[13] = Amaranthus, 504 h, read-out: % damage, Amaranthus
[14] = 504 h, 250 g of ai./ha, read-out: % damage, Viola
[15] = Setaria, 504 h, 250 g of ai./ha, read-out: % damage, Setaria
[16] = Polygonum, 504 h, 250 g of ai./ha, read-out: % damage, Polygonum
[17] = Chenopodium, 504 h, 250 g of ai./ha, read-out: % damage, Chenopodium
[18] = Amaranthus, 504 h, 250 g of ai./ha, read-out: % damage, Amaranthus

Compound	pest or weed control at 500 g/ha [1, 8] [%]	pest or weed control at 500 g/ha [2, 9] [%]	pest or weed control at 500 g/ha [3, 10] [%]	pest or weed control at 500 g/ha [4, 11] [%]	plant injury at 500 g/ha [5, 12] [%]	pest or weed control at 500 g/ha [6, 13] [%]	other results
CC(Nc1nc(N)nc(C(C)(Cl)Cl)n1)c1ccc(Cl)cc1 (stereo not shown) [drawing 126]	100	90	100	100	10	100	
CC(Cl)c1nc(N)nc(NC(C)c2ccc(Cl)cc2)n1 (stereo not shown) [Example 96]							activity against weeds [7]: strong activity
CSc1ccc(C(C)Nc2nc(N)nc(C(Cl)Cl)n2)cc1 (stereo not shown) [drawing 113]							pest or weed control at 1000 g/ha ([1]; 504 h, 1000 g of ai./ha, read-out: % damage, Viola): 100%; pest or weed control at 1000 g/ha ([2]; Setaria, 504 h, 1000 g of ai./ha, read-out: % damage, Setaria): 90%; pest or weed control at 1000 g/ha ([3]; Polygonum, 504 h, 1000 g of ai./ha, read-out: % damage, Polygonum): 80%; pest or weed control at 1000 g/ha ([4]; Chenopodium, 504 h, 1000 g of ai./ha, read-out: % damage, Chenopodium): 100%; plant injury at 1000 g/ha ([5]; Triticum aestivum, 504 h, 1000 g of ai./ha, read-out: % damage, Wheat): 0%; pest or weed control at 1000 g/ha ([6]; Amaranthus, 504 h, 1000 g of ai./ha, read-out: % damage, Amaranthus): 100%
CC(Cl)c1nc(N)nc(NC(C)c2ccc(Cl)cc2)n1 (stereo not shown) [drawing 120]							pest or weed control at 250 g/ha [1, 14]: 100%; pest or weed control at 250 g/ha [2, 15]: 80%; pest or weed control at 250 g/ha [3, 16]: 100%; pest or weed control at 250 g/ha [4, 17]: 100%; % damage, Wheat [5]: 0%; pest or weed control at 250 g/ha [6, 18]: 100%
COc1ccc(C(C)Nc2nc(N)nc(C(F)(F)F)n2)cc1 (stereo not shown) [drawing 138]	100	100	100	100	0	100	
CC(Cl)c1nc(N)nc(NC(C)c2ccc(Cl)cc2)n1 (stereo not shown) [drawing 131]							% damage, Viola ([1]; 250 g of ai./ha): 100%; % damage, Setaria ([2]; 250 g of ai./ha): 90%; % damage, Polygonum ([3]; 250 g of ai./ha): 100%; % damage, Chenopodium ([4]; 250 g of ai./ha): 100%; % damage, Wheat [5]: 10%; % damage, Amaranthus ([6]; 250 g of ai./ha): 100%
CCc1nc(NC(C)=O)nc(NC(C)c2ccc(Cl)cc2)n1 (stereo not shown) [drawing 132]	100	80	100	100	10	100	
CC(=O)Nc1nc(NC(C)c2ccc(Cl)cc2)nc(C(F)(F)F)n1 (stereo not shown)	100	95	100	100	10	100	
CCc1nc(N)nc(NC(C)c2ccc(Cl)cc2)n1 (stereo not shown) [drawing 123]	100	95	100	100		100	
CC(Nc1nc(N)nc(C(F)(F)F)n1)c1ccc(Cl)cc1 (stereo not shown) [Example 21]							activity against weeds [7]: strong activity
CCc1nc(N)nc(NC(C)c2ccc(Cl)cc2)n1 (stereo not shown) [drawing 116]							pest or weed control at 250 g/ha [1, 14]: 100%; pest or weed control at 250 g/ha [2, 15]: 100%; pest or weed control at 250 g/ha [3, 16]: 100%; pest or weed control at 250 g/ha [4, 17]: 100%; plant injury at 250 g/ha [5, 12]: 10%; pest or weed control at 250 g/ha [6, 18]: 100%
CC(=O)Nc1nc(NC(C)c2ccc(Cl)cc2)nc(C(C)Cl)n1 (stereo not shown) [drawing 134]	100	100	100	100	10	100	
COCc1nc(N)nc(NC(C)c2ccc(Cl)cc2)n1 (stereo not shown) [drawing 118]							pest or weed control at 250 g/ha [1, 14]: 100%; pest or weed control at 250 g/ha [2, 15]: 80%; pest or weed control at 250 g/ha [3, 16]: 100%; pest or weed control at 250 g/ha [4, 17]: 100%; plant injury at 250 g/ha [5, 12]: 10%; pest or weed control at 250 g/ha [6, 18]: 100%
CC(Nc1nc(N)nc(C(C)(Cl)Cl)n1)c1ccc(Cl)cc1 (stereo not shown) [Example 97]							activity against weeds [7]: strong activity
CC(Nc1nc(N)nc(Cl)n1)c1ccc(Cl)cc1 (stereo not shown) [Example 4]							activity against weeds [7]: strong activity
CC(Nc1nc(N)nc(C(F)(F)C(F)(F)F)n1)c1ccc(Cl)cc1 (stereo not shown)							pest or weed control at 250 g/ha [1, 14]: 100%; pest or weed control at 250 g/ha [2, 15]: 100%; pest or weed control at 250 g/ha [3, 16]: 100%; pest or weed control at 250 g/ha [4, 17]: 100%; plant injury at 250 g/ha [5, 12]: 10%; pest or weed control at 250 g/ha [6, 18]: 100%
CCC(Nc1nc(N)nc(C(F)(F)F)n1)c1ccc(Cl)cc1 (stereo not shown) [Example 86]							activity against weeds [7]: strong activity
COc1ccc(C(C)Nc2nc(NC(C)=O)nc(C(F)(F)F)n2)cc1 (stereo not shown) [drawing 141]	100	95	100	100	10	100	
